Assay results from patent US6514997B2, “Antipicornaviral compounds and compositions, their pharmaceutical uses, and materials for their synthesis” (Agouron Pharmaceuticals, Inc., priority 1999, dated 2003).
Where two headings read alike, the source gives them in different places.

Columns and labels:
[1] = biological target: T1, Recombinant rhinovirus 3C protease, serotype 14 (Human rhinovirus 14, UniProt P03303); assay: Inhibition of rhinovirus 3C protease (FRET assay, kobs/[I]), serotype 14; format: biochemical; conditions: HRV-14; for kinact/KI: pH 7.6, read-out: kobs/[I] (3C protease inhibition activity)
T1 construct: Recombinant rhinovirus 3C proteases; made in house
Method: Inhibition of Rhinovirus 3C Protease:
Stock solutions (50 mM, in DMSO) of various compounds were prepared; dilutions were in the same solvent. Recombinant rhinovirus 3C proteases (see Birch et al., “Purification of recombinant human rhinovirus 14 3C protease expressed in Escherichia coli,” Protein Expr. Pur. (1995), vol. 6(5), 609-618) from serotypes 14, 16, and 2 were prepared by the following standard chromatographic procedures: (1) ion exchange using Q Sepharose Fast Flow from Pharmacia; (2) affinity chromatography using Affi-Gel Blue from Biorad; and (3) sizing using Sephadex G-100 from Pharmacia. Each assay sample contained 2% DMSO, 50 mM tris pH 7.6, 1 mM EDTA, a test compound at the indicated concentration, approximately 1 μM substrate, and 50-100 nM protease. The kobs/I values were obtained from reactions initiated by addition of enzyme rather than substrate. RVP activity was measured in the fluorescence resonance energy transfer assay. The substrate was (N-terminal) DABCYL-([…]-EDANS. In the uncleaved peptide, the EDANS fluorescence was quenched by the proximal DABCYL moiety. When the peptide was cleaved, the quenching was relieved, and activity was measured as an increase in fluorescence signal. The tabulated data in the column designated kobs/[I] were measured from progress curves in enzyme start experiments.

[2] = test system: HRV-14; assay: Antirhinoviral H1-HeLa cell culture assay (XTT cell protection, EC50), HRV-14; format: cell-based, human rhinovirus (HRV) serotype-14 in H1-HeLa cells
Method: (§1) Antirhinoviral H1-HeLa Cell Culture Assay:
(§2) In this cell protection assay, the ability of compounds to protect cells against HRV infection was measured by the XTT dye reduction method, which is described in Weislow et al., J. Natl. Cancer Inst. […] H1-HeLa cells were infected with HRV-14 at a multiplicity of infection (m.o.i.) of 0.13 (virus particles/cell) or mock-infected with medium only. Infected or mock-infected cells were resuspended at 8×10^5 cells per mL, and incubated with appropriate concentrations of the compounds to be tested. Two days later, XTT/PMS was added to test plates and the amount of formazan produced was quantified spectrophotometrically at 450/650 nm. […] The therapeutic index (TI) was calculated by dividing the CC50 value by the EC50 value.
(§3) All strains of human rhinovirus (HRV) for use in this assay were purchased from American Type Culture Collection (ATCC), except for HRV serotype-14 (produced from the infectious cDNA clone constructed by Dr. Robert Rueckert, Institute for Molecular Virology, University of Wisconsin, Madison, Wis.). HRV stocks were propagated and viral assays were performed in H1-HeLa cells (ATCC). Cells were grown in minimal essential medium with 10% fetal bovine serum, available from Life Technologies (Gaithersburg, Md.).

[3] = test system: H1-HeLa cells; assay: Cytotoxicity (CC50) in mock-infected H1-HeLa cells, XTT dye reduction; format: cell-based, human
Method: as §2, §3
(§4) Coxsackievirus types A-21 (CAV-21) and B3 (CVB3) were purchased from American Type Culture Collection (ATCC, Rockville, Md.). Virus stocks were propagated and antiviral assays were performed in H1-HeLa cells (ATCC). Cells were grown in minimal essential medium with 10% fetal bovine serum (Life Technologies, Gaithersburg, Md.). The ability of the compounds of this invention to protect cells against either CAV-21 or CVB3 infection was measured by the XTT dye reduction method. This method is described in Weislow et al., J. Natl. Cancer Inst. […] H1-HeLa cells were infected with CAV-21 or CVB3 at a multiplicity of infection (m.o.i.) of 0.025 or 0.075, respectively, or mock-infected with medium only. H1-HeLa cells were plated at 4×10^4 cells per well in a 96-well plate and incubated with appropriate concentrations of the test compound. One day (CVB3) or two days (CAV-21) later, XTT/PMS was added to test plates and the amount of formazan produced was quantified spectrophotometrically at 450/650 nm. […] The therapeutic index (TI) was calculated by dividing the CC50 by the EC50.

[4] = test system: strains of human rhinovirus (HRV); assay: Antirhinoviral H1-HeLa cell culture assay (XTT cell protection, EC50), other HRV strains; format: cell-based, human rhinovirus in H1-HeLa cells; conditions: read-out: EC50
Method: as §1
In this cell protection assay, the ability of compounds to protect cells against HRV infection was measured by the XTT dye reduction method, which is described in Weislow et al., J. Natl. Cancer Inst. (1989), vol. 81, 577-586. H1-HeLa cells were infected with HRV-14 at a multiplicity of infection (m.o.i.) of 0.13 (virus particles/cell) or mock-infected with medium only. Infected or mock-infected cells were resuspended at 8×10^5 cells per mL, and incubated with appropriate concentrations of the compounds to be tested. Two days later, XTT/PMS was added to test plates and the amount of formazan produced was quantified spectrophotometrically at 450/650 nm. […] The therapeutic index (TI) was calculated by dividing the CC50 value by the EC50 value.
as §3

[5] = Cytotoxicity (CC50) in mock-infected H1-HeLa cells, XTT dye reduction; format: cell-based, human; conditions: human, H1-HeLa cells, mock-infected; line of HRV-14
Method: as §2, §3, §4

[6] = Rhinovirus B, HRV14, H1-HeLa, HRV-14, read-out: EC50

T1 sequence (P03303 1538-1719): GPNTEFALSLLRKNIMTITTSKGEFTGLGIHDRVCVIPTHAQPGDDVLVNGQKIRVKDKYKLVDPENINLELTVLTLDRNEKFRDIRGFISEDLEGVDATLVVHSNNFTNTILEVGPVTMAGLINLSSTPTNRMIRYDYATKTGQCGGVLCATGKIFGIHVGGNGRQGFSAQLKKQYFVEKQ

Compound	kinact/KI [1] [M⁻¹ s⁻¹]	CC50 at 2 days [5] [nM]	EC50 [2, 6] [nM]	further results
Cc1cc(C(=O)Nc2cccn(C(Cc3ccc(F)c(F)c3)C(=O)N[C@H](/C=C/C(=O)OCC(C)(C)C)C[C@@H]3CCNC3=O)c2=O)no1 (relative stereo) [Compound 47, trans-(2′S,3″″″S,4S)-4-[3′-(3″,4″-Difluorophenyl)-2′-(3′″-{[1″″-(5′″″-methylisoxazol-3′″″-yl)methanoyl]amino}-2″″-oxo-2″″H-pyridin-1″″-yl)propanoylamino]-5-(2″″″-oxopyrrolidin-3″″″-yl)pent-2-enoic Acid 2,2-Dimethylpropyl Ester]	–	–	–	kobs/[I] (3C protease inhibition activity) [1]: 1,400,000 M^−1s^−1; EC50 ([2]; HRV-14, read-out: EC50): 40 nM; CC50 ([3]; line of HRV-1A): > 10000 nM; CC50 ([3]; line of HRV-2): > 10000 nM; CC50 ([3]; line of HRV-3): > 10000 nM; CC50 ([3]; line of HRV-9): > 10000 nM; CC50 ([3]; line of HRV-10): > 10000 nM; CC50 ([3]; line of HRV-14): > 10000 nM; CC50 ([3]; line of HRV-16): > 10000 nM; CC50 ([3]; line of HRV-25): > 10000 nM; CC50 ([3]; line of HRV-39): > 10000 nM; EC50 ([4]; HRV-1A): 148 nM; EC50 ([4]; HRV-2): 133 nM; EC50 ([4]; HRV-3): 18 nM; EC50 ([4]; HRV-9): 121 nM; EC50 ([4]; HRV-10): 114 nM; EC50 ([4]; HRV-16): 49 nM; EC50 ([4]; HRV-25): 193 nM; EC50 ([4]; HRV-39): 168 nM
CCOC(=O)/C=C/[C@H](C[C@@H]1CCNC1=O)NC(=O)[C@H](Cc1ccccc1)n1ccc2cc[nH]c2c1=O [Compound 3]	2900	> 10000	–	EC50 ([2]; Rhinovirus B, HRV14, H1-HeLa): 1270 nM
CCOC(=O)/C=C/[C@H](CCC(N)=O)NC(=O)[C@H](Cc1ccc(F)cc1)n1cccc(NC(=O)OCc2ccccc2)c1=O [Compound 7, trans-(2′S,4S)-4-[2′-(3″-Benzyloxycarbonylamino-2″-oxo-2″H-pyridin-1″-yl)-3′-(4′″-fluorophenyl)propionylamino]-6-carbamoylhex-2-enoic Acid Ethyl Ester]	81000	> 10000	14	–
CCOC(=O)/C=C/[C@H](CCC(N)=O)NC(=O)[C@H](Cc1ccccc1)n1cccc(NC(C)=O)c1=O [Compound 8, trans-(2′S,4S)-4-[2′-(3″-Acetylamino-2″-oxo-2″H-pyridin-1″-yl)-3′-phenypropionylamino]-6-carbamoylhex-2-enoic Acid Ethyl Ester]	7660	> 10000	888	–
CCOC(=O)/C=C/[C@H](CCC(N)=O)NC(=O)[C@H](Cc1ccccc1)n1cccc(NC(=O)C(C)(C)C)c1=O [Compound 9, trans-(2′S,4S)-6-Carbamoyl-4-{2′-[3″-(2′″,2′″-dimethylpropionylamino)-2″-oxo-2″H-pyridin-1″-yl]-3′-phenylpropionylamino}hex-2-enoic Acid Ethyl Ester]	5040	> 10000	518	–
CCOC(=O)/C=C/[C@H](CCC(N)=O)NC(=O)[C@H](Cc1ccc(F)c(F)c1)n1cccc(NC(=O)OCc2ccccc2)c1=O [Compound 11, trans-(2′S,4S)-4-[2′-(3″-Benzyloxycarbonylamino-2″-oxo-2″H-pyridin-1″-yl)-3′-(3′″,4′″-difluorophenyl)propionylamino]-6-carbamoylhex-2-enoic Acid Ethyl Ester]	193000	> 10000	< 3.2	–
CCOC(=O)/C=C/[C@H](CCC(N)=O)NC(=O)[C@H](Cc1ccccc1)n1ccc(C)c(NC(=O)OCc2ccccc2)c1=O [Compound 12, trans-(2′S,4S)-4-[2′-(3″-Benzyloxycarbonylamino-4″-methyl-2″-oxo-2″H-pyridin-1″-yl)-3′-phenylpropionylamino]-6-carbamoylhex-2-enoic Acid Ethyl Ester]	25800	> 10000	75	–
CCOC(=O)/C=C/[C@H](CCC(N)=O)NC(=O)[C@H](CC1CCCCC1)n1cccc(NC(=O)OCc2ccccc2)c1=O [Compound 15, trans-(2′S,4S)-4-[2′-(3″-Benzyloxycarbonylamino-2″-oxo-2″H-pyridin-1″-yl)-3′-cyclohexylpropionylamino]-6-carbamoyl-hex-2-enoic Acid Ethyl Ester]	6500	> 10000	178	–
O=C1OCC/C1=C\[C@H](C[C@@H]1CCNC1=O)NC(=O)[C@H](Cc1ccc(F)cc1)n1cccc(NC(=O)C2CCCC2)c1=O [Compound 16, trans-(2′″S,2′″S,3′″″S)-Cyclopentanecarboxylic acid(1-{2′-(4″-fluorophenyl)-1′-[2′-(2″″-oxo-dihydrofuran-3″″-ylidene)-1-(2′″″-oxopyrrolidin-3′″″-ylmethyl)ethylcarbamoyl]ethyl}-2-oxo-1,2-dihydropyridin-3-yl)amide]	74000	> 10000	325	–
CCOC(=O)/C=C/[C@H](CCC(N)=O)NC(=O)Cn1cccc(NC(=O)OCc2ccccc2)c1=O [Compound 17, trans-(4S)-4-[2′-(3″-Benzyloxycarbonylamino-2″-oxo-2″H-pyridin-1″-yl)acetylamino]-6-carbamoylhex-2-enoic Acid Ethyl Ester]	348	> 10000	> 10000	–
CCOC(=O)/C=C/[C@H](CCC(N)=O)NC(=O)[C@H](Cc1ccccc1)n1ccc(C)c(NC(=O)c2cc(C)on2)c1=O [Compound 18, trans-(2′S,4S)-6-Carbamoyl-4-(2′-{4″-methyl-3″-[(5′″-methylisoxazole-3′″-carbonyl)amino]-2″-oxo-2″H-pyridin-1″-yl}-3′-phenylpropionylamino)hex-2-enoic Acid Ethyl Ester]	116000	> 10000	125	–
CCOC(=O)/C=C/[C@H](C[C@@H]1CCNC1=O)NC(=O)[C@H](Cc1ccccc1)n1cccc(NC(=O)OCc2ccccc2)c1=O [Compound 19, trans-(2′S,3′″S,4S)-4-[2′-(3″-Benzyloxy-carbonylamino-2″-oxo-2″H-pyridin-1″-yl)-3′-phenylpropionylamino]-5-(2′″-oxopyrrolidin-3′″-yl)pent-2-enoic Acid Ethyl Ester]	380000	> 10000	–	EC50 ([2]; Rhinovirus B, HRV14, H1-HeLa): 3 nM
Cc1cc(C(=O)Nc2cccn([C@@H](Cc3ccc(F)cc3)C(=O)N[C@H](/C=C3\CCOC3=O)C[C@@H]3CCNC3=O)c2=O)no1 [Compound 20, trans-(2″S,2″″S,3″″″S)-5-Methylisoxazole-3-carboxylic Acid (1′-{2″-(4′″-fluorophenyl)-1″-[2″″-(2′″″-oxodihydrofuran-3′″″-ylidene)-1″″-(2″″″oxopyrrolidin-3″″″-ylmethyl)ethylcarbamoyl]ethyl}-2′-oxo-1′,2′-dihydropyridin-3′-yl)amide]	600000	> 10000	15	–
